System: phenyl-p-benzoquinone induced writhing in mice
Assay: mouse antiphenylquinone (phenyl-p-benzoquinone induced) writhing test, oral, 20 min
Procedure: Male CF1 mice obtained from Charles River Breeding Laboratories, fasted for 16-22 hours and weighing 18-22 g at the time of testing are used throughout. All mice are dosed sequentially by the oral route with solutions of flurbiprofen and/or of nalbuphine hydrochloride. A dosing volume of 10 ml/kg is used for each sequential solution or suspension. […] All doses are coded and the test is performed under a code not known to the observer.
A stock solution of flurbiprofen is prepared by dissolving dry flurbiprofen powder with an equimolar amount of one molar sodium hydroxide and sufficient water to produce the required solution concentration. The acidity is adjusted with dilute hydrochloric acid to pH 9.0. All dosing solutions are prepared by dilution of the stock solution with distilled water; the vehicle control is distilled water.
Stock solutions of nalbuphine HCl are prepared by dissolving dry nalbuphine hydrochloride powder with distilled water. All dosing solutions are prepared by dilution of the stock solution with distilled water; the vehicle control is distilled water.
As indicated above, the standard procedure based upon the prevention of phenyl-p-benzoquinone induced writhing in mice is utilized to detect and quantify the analgetic activity of compositions containing nalbuphine and flurbiprofen.
Mice, intubated with various doses of nalbuphine hydrochloride, flurbiprofen, combined doses of nalbuphine hydrochloride and flurbiprofen,or vehicle, are injected intraperitoneally with a challenge dose of phenyl-p-benzoquinone 5 minutes prior to the designated observation period. […] For scoring purposes a "writhe" is indicated by whole body stretching or contraction of the abdomen; mice are observed 10 minutes for the presence or absence of writhing beginning 5 minutes after receiving the phenyl-p-benzoquinone dose. Each mouse is used only once, then discarded. […] This dosage as described herein is referred to as the ED50.
In order to study the interaction between nalbuphine and flurbiprofen, 5 precise dosage ratios of nalbuphine hydrochloride and flurbiprofen are selected. Four or five coded doses of each selected combination are studied for analgesic effectivenss at 20 minutes using an experimental design which permits coding and complete randomization of the separate dosage forms tested. Althogether 35 separate dosage forms are used and each form is represented in each experimental session. The experiments are continued by running experimental sessions with an equal number of mice per group being tested until the total number, N, of mice tested per group is 20. Later, an additional 20 mice/dose are tested and the results are pooled with the original data to yield N=20-40 mice/dose.

Compound | ED50 at 20 Min. (95% Confidence Limits), Flurbiprofen (flurbiprofen dose (alone or as component of the combination), N = 20-40 mice/dose) [mg/kg] | % MICE BLOCKED (nalbuphine HCl 0 + flurbiprofen 0.4 mg/kg) [%] | % MICE BLOCKED (nalbuphine HCl 0 + flurbiprofen 0.8 mg/kg) [%] | % MICE BLOCKED (nalbuphine HCl 0 + flurbiprofen 1.6 mg/kg) [%] | % MICE BLOCKED (nalbuphine HCl 0 + flurbiprofen 3.2 mg/kg) [%] | % MICE BLOCKED (nalbuphine HCl 2.93 + flurbiprofen 0 mg/kg) [%] | % MICE BLOCKED (nalbuphine HCl 5.85 + flurbiprofen 0 mg/kg) [%] | % MICE BLOCKED (nalbuphine HCl 11.7 + flurbiprofen 0 mg/kg) [%] | % MICE BLOCKED (nalbuphine HCl 23.4 + flurbiprofen 0 mg/kg) [%] | % MICE BLOCKED (nalbuphine HCl 46.8 + flurbiprofen 0 mg/kg) [%] | ED50 at 20 Min. (95% Confidence Limits), Nalbuphine HCl (nalbuphine HCl dose (alone or as component of the combination), N = 20-40 mice/dose) [mg/kg]
CC(C(=O)O)c1ccc(-c2ccccc2)c(F)c1 (stereo not drawn) [Flurbiprofen Only (0:1), 2-fluoro-α-methyl[1,1'-biphenyl]-4-acetic acid] | 1.56 | 5.0 | 32.5 | 45.0 | 87.5 | – | – | – | – | – | –
Oc1ccc2c3c1O[C@H]1[C@@H](O)CC[C@@]4(O)[C@@H](C2)N(CC2CCC2)CC[C@]314 [Nalbuphine Only (1:0), (-)-17-(cyclobutylmethyl)-4,5α-epoxymorphinan-3,6α,14-triol] | – | – | – | – | – | 12.5 | 22.5 | 45.0 | 67.5 | 80.0 | 16.5

— patent US4404211A, “Analgesic mixture of nalbuphine and flurbiprofen” (E. I. Du Pont de Nemours and Company, priority 1982, dated 1983)
